{"source": "ChEMBL document CHEMBL1129157", "about": "“Design and synthesis of a new class of conformationally constrained inhibitors to probe the active sites of thermolysine and neutral endopeptidase 24.11” (Bioorg Med Chem Lett, 1996)", "key": {"Neprilysin": {"target": "T1, Neprilysin (Rattus norvegicus, UniProt P07861)", "T1 sequence (P07861 whole entry)": "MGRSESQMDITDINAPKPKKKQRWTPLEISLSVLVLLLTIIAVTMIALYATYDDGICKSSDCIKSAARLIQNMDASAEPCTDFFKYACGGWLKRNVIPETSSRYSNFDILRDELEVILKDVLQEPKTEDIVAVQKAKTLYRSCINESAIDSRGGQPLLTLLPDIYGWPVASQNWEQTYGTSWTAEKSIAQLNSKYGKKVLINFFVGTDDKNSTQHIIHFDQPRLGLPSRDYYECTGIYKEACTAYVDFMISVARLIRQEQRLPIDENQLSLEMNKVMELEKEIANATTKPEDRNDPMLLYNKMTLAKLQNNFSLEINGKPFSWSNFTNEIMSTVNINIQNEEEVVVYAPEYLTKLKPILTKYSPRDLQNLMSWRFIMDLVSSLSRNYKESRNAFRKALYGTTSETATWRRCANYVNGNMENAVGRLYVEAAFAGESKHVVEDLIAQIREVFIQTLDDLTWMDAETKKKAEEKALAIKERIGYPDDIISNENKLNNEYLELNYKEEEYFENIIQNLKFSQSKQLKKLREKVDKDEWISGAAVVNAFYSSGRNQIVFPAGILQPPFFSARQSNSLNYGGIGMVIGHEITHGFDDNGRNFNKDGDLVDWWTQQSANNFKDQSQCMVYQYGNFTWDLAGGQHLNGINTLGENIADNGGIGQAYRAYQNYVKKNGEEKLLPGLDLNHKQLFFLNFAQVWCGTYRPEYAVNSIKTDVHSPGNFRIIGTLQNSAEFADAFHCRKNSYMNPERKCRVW", "assay": "Compound was tested for inhibition of rat kidney neutral endopeptidase"}, "[1]": {"assay": "Compound was tested for inhibition of thermolysine, a bacterial zinc-endopeptidase", "type": "functional"}}}
{"compound": "O=C(O)CNC(=O)[C@H]1[C@H](S)CC[C@@H]1c1ccccc1", "values": [{"measurement": "IC50", "setting": "Neprilysin", "result": 430, "unit": "nM"}, {"measurement": "IC50", "setting": "[1]", "result": 29000, "unit": "nM"}]}
{"compound": "O=C(O)[C@@H]1CCCC2c3ccccc3C[C@H](CS)C(=O)N21", "note": "(some centres not stated)", "values": [{"measurement": "IC50", "setting": "Neprilysin", "result": "> 300", "unit": "nM"}]}
{"compound": "O=C(O)CNC(=O)[C@@H]1[C@@H](S)CC[C@H]1c1ccccc1", "values": [{"measurement": "IC50", "setting": "Neprilysin", "result": 480, "unit": "nM"}, {"measurement": "IC50", "setting": "[1]", "result": 110000, "unit": "nM"}]}
{"compound": "O=C(O)CNC(=O)[C@H](CS)Cc1ccccc1", "note": "[(R)-THIORPHAN]", "values": [{"measurement": "IC50", "setting": "[1]", "result": 3000, "unit": "nM"}]}
{"compound": "O=C(O)CNC(=O)[C@@H](CS)Cc1ccccc1", "note": "[(S)-THIORPHAN]", "values": [{"measurement": "IC50", "setting": "[1]", "result": 1800, "unit": "nM"}]}
